In patent US8980874B2, “Method and composition for treating diabetic ketoacidosis” (Midwestern University, priority 2009, dated 2015):
Entries after “also recorded” stand apart in the source; their conditions may differ. Non-standard residues stand in square brackets, D forms with d. Residues, ends and D or L forms follow the SMILES beside them.

Assays:
Format in all cases: in vivo
[1] = test system: rat model of DKA; assay: Blood glucose in streptozotocin-induced diabetic ketoacidosis rats; conditions: for blood glucose, Day 4 (pre-tx): baseline before treatment on day 4, mean±SEM; for effect of treatment on blood glucose: day 4, result in words; for blood glucose, Day 4 (end of tx) / blood glucose, Day 4 (1 hour of tx): saline+insulin infusion, alone or after bolus BMS-182874 9 mg/kg or BQ123 1 mg/kg, mean±SEM; for blood glucose, Day 4 (end of tx): fifth hour
Experimental: Normotensive Sprague Dawley rats were kept on fasting for 2 hours with unlimited access to water. After 2 hours of fasting, rats were injected intraperitoneally with 150 mg/kg of streptozotocin in 0.05 mol/L citric acid, pH 4.3 to induced diabetes (Lam et al., 2005; Yuen et al., 2008), while non-diabetic control rats received an intraperitoneal injection of 0.05 mol/L citrate buffer (Lam et al., 2005; Yuen et al., 2008). Rats were allowed unlimited access to tap water and food. Each day rats were weighed and urine ketone levels were estimated by Urine Reagent Strips, 1K Parameter. Prior to streptozotocin or citrate buffer injection, baseline blood glucose levels were assessed by One Touch Ultra blood glucose strips from Lifescan, Milpitas, Calif., and baseline blood ketone levels were estimated using Cardiochek blood ketone analyzer. Blood glucose and ketone were measured again on day three and four to ensure the onset of hyperglycemia and ketoacidosis. […] Blood samples were withdrawn from the femoral […] for baseline reading prior to start of treatment, after the first hour of treatment, and then at the end of the treatment (fifth hour of experiment).
The animals were allowed to stabilize for at least 20 minutes following surgical procedures. Body weight, blood glucose, urinary ketone, blood ketone, arterial blood gases, blood electrolytes, mean arterial pressure, pulse pressure, heart rate, brain blood perfusion, brain and lung water content were determined in the following groups
(§1) Group 4: Diabetic saline/insulin treated (D-Saline+insulin treated): Rats were injected with streptozotocin in citrate buffer (150 mg/kg ip) to induce diabetes and ketoacidosis. On day three, rats were treated with 1.5 U/kg regular insulin (Humulin® R (Regular human insulin, rDNA origin). On day four, saline and insulin treatment was carried out. Rats were infused via cannulated femoral vein saline, 0.9% NaCl at 80 mL/kg/hr and 1.5 U/kg/hr regular insulin for one hour. During the next two through four hours, rats were infused with saline, 0.9% NaCl at 40 mL/kg/hr and 1.5 U/kg/hr regular insulin (Yuen et al., 2008).
(§2) Group 5: Diabetic BMS-182874/saline/insulin treated (D-BMS+Saline+insulin treated): Rats were injected with streptozotocin in citrate buffer (150 mg/kg ip) to induce diabetes and ketoacidosis. On day three, rats were treated with 1.5 U/kg regular insulin. On day four, rats were administered a bolus dose of selective ETA receptor antagonist, BMS-182874 (9 mg/kg), then saline and insulin treatment was carried out. Rats were infused via cannulated femoral vein saline, 0.9% NaCl at 80 mL/kg/hr and 1.5 U/kg/hr regular insulin for one hour. During the next two through four hours rats were infused with saline, 0.9% NaCl at 40 mL/kg/hr and 1.5 U/kg/hr regular insulin.
(§3) Group 6: Diabetic BQ123/saline/insulin treated (D-BQ+saline+insulin treated): Same as above for Group 5, except BQ123 (1 mg/kg body weight) is used as a substitute for BMS-182874 (9 mg/kg).
(§4) Data are presented as mean±SEM. The significance of differences was estimated by one-way analysis of variance (intra group comparison with respect to base line data) and two-way analysis of variance (inter group comparison with respect to corresponding time points from each groups) followed by application of the Dunnett's Multiple Comparisons and Bonferroni test respectively. A P value of less than 0.05 was considered to be significant. The statistical analysis was processed with GraphPad Prism software Version 5.00.

[2] = test system: rat model of DKA; assay: Arterial blood gases, electrolytes, lactate and hematocrit in diabetic ketoacidosis rats; conditions: for arterial blood pH, Day 4 (pre-tx) / arterial blood pCO2, Day 4 (pre-tx) / arterial blood pO2, Day 4 (pre-tx) / blood K+ level, Day 4 (pre-tx) / blood Na+ level, Day 4 (pre-tx) / blood hematocrit (Hct), Day 4 (pre-tx): baseline; for arterial blood pH, Day 4 (pre-tx): instrument could not record pH below 6.80, mean±SEM; for arterial blood pCO2, Day 4 (pre-tx) / arterial blood pO2, Day 4 (pre-tx) / blood K+ level, Day 4 (pre-tx) / blood Na+ level, Day 4 (pre-tx) / blood hematocrit (Hct), Day 4 (pre-tx): mean±SEM; for effect of treatment on arterial blood pH (acidosis): day 4, antagonist given with saline+insulin; for effect of treatment on arterial blood pH (acidosis) / effect of treatment on blood K+ levels / effect of treatment on blood lactate levels / effect of treatment on hematocrit: result in words; for effect of treatment on blood K+ levels / effect of treatment on blood lactate levels / effect of treatment on hematocrit: day 4, compared to diabetic untreated rats; for arterial blood pCO2, Day 4 (1 hour of tx) / arterial blood pCO2, Day 4 (end of tx) / arterial blood pO2, Day 4 (1 hour of tx) / arterial blood pO2, Day 4 (end of tx) / blood K+ level, Day 4 (1 hour tx) / blood K+ level, Day 4 (end of tx) / blood Na+ level, Day 4 (1 hour of tx) / blood Na+ level, Day 4 (end of tx) / blood hematocrit (Hct), Day 4 (1 hour of tx) / blood hematocrit (Hct), Day 4 (end of tx) / arterial blood pH, Day 4 (1 hour of tx) / arterial blood pH, Day 4 (end of tx): saline+insulin, alone or after bolus BMS-182874 9 mg/kg or BQ123 1 mg/kg; for arterial blood pH, Day 4 (1 hour of tx) / arterial blood pH, Day 4 (end of tx): instrument floor 6.80
Excerpt: Arterial blood pH, pO2, pCO2, Na^+, K^+, lactate, and hematocrit were monitored prior to, at one hour, and at the end of treatment. Blood samples were drawn from the arterial cannula using blood gas sampling syringes (Innovative Medical Technologies, Inc. Leawood, Kans.) and analyzed using a GEM Premier 3000 unit (Instrument Laboratory, Lexington, Mass.). Blood samples were withdrawn from the femoral artery for baseline reading prior to start of treatment, after the first hour of treatment, and then at the end of the treatment (fifth hour of experiment).
as §1, §2, §3, §4

[3] = test system: rat model of DKA; assay: Cardiovascular parameters (MAP, pulse pressure, heart rate) in diabetic ketoacidosis rats; conditions: result in words; for effect on mean arterial pressure: day 4, FIG. 3, antagonist given with saline+insulin; for effect on heart rate: day 4, FIG. 5, antagonist given with saline+insulin
Excerpt: Rats were anaesthetized with urethane (1.5 g/kg ip.) and prepared for the determination of hemodynamic parameters (Gulati et al., 1997a; Gulati et al., 1997b). The anesthetized rats were shaved and immobilized to prepare for cannulation. A 2-3 centimeter (cm) incision was made above the femoral vein and artery and the vessels were dissected and cleaned. The left femoral vein was cannulated (PE-50 tubing, Clay Adams, Parsipanny, N.J.) and secured for drug administration. An ultra-miniature pressure transducer SPR-320 (2F Polyurethane), with a single pressure sensor side mounted at the tip (Millar Instruments, Houston, Tex.) was inserted in the left femoral artery to acquire the hemodynamic signals. Pressure transducer was connected to bridge amplifier (ML221 Bridge Amp; AD Instruments, Mountain View, Calif., USA) with Viking connector (AEC-10C) and the signals were continuously acquired at a sampling rate of 1000 S^−1 using Millar PowerLab 16/30 data acquisition system (AD Instruments, Mountain View, Calif., USA). Mean arterial pressure (MAP), heart rate (HR), and pulse pressure (PP) were determined and analyzed with LabChart-5.00 software program (Millar Instruments). After the experiment was completed, the animals were euthanized with a high dose of urethane (3 gm/kg).
as §1, §2, §3, §4

[4] = test system: rat model of DKA; assay: Brain blood perfusion (Laser Doppler Flowmetry) in diabetic ketoacidosis rats; conditions: day 4, FIG. 6, antagonist given with saline+insulin, result in words
Experimental: A burr hole was drilled into the rat skull approximately 2 millimeters (mm) to the left of midline, being careful not to disturb the brain tissue itself. Cerebrovascular perfusion was measured via a fiber optic probe (PF407) applied to the surface of the rat brain. The probe was connected to a Periflux PF2b 4000 Laser Doppler Flowmetry unit (Perimed, Stockholm, Sweden). The perfusion was determined by measuring the passage of red blood cells through the capillaries.
as §1, §2, §3, §4

Compound | blood glucose, Day 4 (pre-tx) [1] | effect of treatment on blood glucose [1] | blood glucose, Day 4 (end of tx) [1] | blood glucose, Day 4 (1 hour of tx) [1] | arterial blood pH, Day 4 (pre-tx) [2] | arterial blood pCO2, Day 4 (pre-tx) [2] | arterial blood pO2, Day 4 (pre-tx) [2] | blood K+ level, Day 4 (pre-tx) [2] | blood Na+ level, Day 4 (pre-tx) [2] | blood hematocrit (Hct), Day 4 (pre-tx) [2] | effect of treatment on arterial blood pH (acidosis) [2] | effect of treatment on blood K+ levels [2] | effect of treatment on blood lactate levels [2] | effect of treatment on hematocrit [2] | arterial blood pCO2, Day 4 (1 hour of tx) [2] | arterial blood pCO2, Day 4 (end of tx) [2] | arterial blood pO2, Day 4 (1 hour of tx) [2] | arterial blood pO2, Day 4 (end of tx) [2] | blood K+ level, Day 4 (1 hour tx) [2] | blood K+ level, Day 4 (end of tx) [2] | further results
Insulin: Humulin® R (Regular human insulin, rDNA origin), infused with saline | 530 ± 20 mg/dL | produced a significant decrease in blood glucose | 200 ± 20 mg/dL | 444 ± 26 mg/dL | 6.81 ± 0.01 | 30.40 ± 2.46 mmHg | 145.00 ± 10.84 mmHg | 3.82 ± 0.29 mmol/L | 135.00 ± 2.17 mmol/L | 49.80 ± 2.27% | did not produce any significant improvement in acidosis | significantly reduced the change in blood K^+ levels | significantly reduced the change in blood lactate levels | significantly reduced the hematocrit | 29.00 ± 2.30 mmHg | 27.60 ± 2.21 mmHg | 160.20 ± 11.36 mmHg | 155.60 ± 11.43 mmHg | 2.92 ± 0.16 mmol/L | 2.48 ± 0.24 mmol/L | blood Na+ level, Day 4 (1 hour of tx) [2]: 141.60 ± 1.21 mmol/L; blood Na+ level, Day 4 (end of tx) [2]: 148.60 ± 0.51 mmol/L; blood hematocrit (Hct), Day 4 (1 hour of tx) [2]: 38.80 ± 1.80%; blood hematocrit (Hct), Day 4 (end of tx) [2]: 30.20 ± 3.12 %; arterial blood pH, Day 4 (1 hour of tx) [2]: 6.80 ± 0.01; arterial blood pH, Day 4 (end of tx) [2]: 6.81 ± 0.04; effect on mean arterial pressure [3]: produced much less fall in arterial pressure compared to untreated rats; effect on pulse pressure ([3]; day 4, FIG. 4, antagonist given with saline+insulin): produced much less fall in pulse pressure compared to untreated rats; effect on heart rate [3]: did not produce any decrease in heart rate compared to baseline; effect on cerebral blood perfusion [4]: produced a marked (#P<0.05) increase in cerebral blood perfusion
CC(C)C[C@@H]1NC(=O)[C@@H](C(C)C)NC(=O)[C@@H]2CCCN2C(=O)[C@@H](CC(=O)O)NC(=O)[C@@H](Cc2c[nH]c3ccccc23)NC1=O [BQ123, Cyclo(D-Trp-D-Asp-Pro-D-Val-Leu)] (cyclo(L[dW][dD]P[dV])) | 484 ± 17 mg/dL | did not significantly affect blood glucose | 312 ± 55 mg/dL | 462 ± 55 mg/dL | 6.82 ± 0.02 | 25.00 ± 3.7 mmHg | 130.2 ± 14.04 mmHg | 3.4 ± 0.45 mmol/L | 140.00 ± 2.87 mmol/L | 42.6 ± 4.81% | produced a significant improvement in arterial blood pH | significantly reduced the change in blood K^+ levels | significantly reduced the change in blood lactate levels | significantly reduced the hematocrit | 23.6 ± 2.17 mmHg | 23.2 ± 1.95 mmHg | 128.4 ± 11.006 mmHg | 141.2 ± 4.6 mmHg | 2.04 ± 0.29 mmol/L | 2.38 ± 0.34 mmol/L | blood Na+ level, Day 4 (1 hour of tx) [2]: 147 ± 1.3 mmol/L; blood Na+ level, Day 4 (end of tx) [2]: 150.04 ± 2.43 mmol/L; blood hematocrit (Hct), Day 4 (1 hour of tx) [2]: 31.4 ± 2.97 %; blood hematocrit (Hct), Day 4 (end of tx) [2]: 31.8 ± 2.21 %; arterial blood pH, Day 4 (1 hour of tx) [2]: 6.81 ± 0.01; arterial blood pH, Day 4 (end of tx) [2]: 6.91 ± 0.01; effect on mean arterial pressure [3]: stabilized the arterial pressure; effect on heart rate [3]: did not produce any decrease in heart rate compared to baseline; effect on cerebral blood perfusion [4]: significantly blocked; also recorded: prevented an insulin induced increase in cerebral blood perfusion
